From US20090306218A1, “Antimicrobial formulations” (priority 2006, published 2009)
Where two headings read alike, the source gives them in different places.

What was measured:
[1] = test system: Propionibacterium acnes NCTC 737; test: Disc diffusion assay (DDA); type: cell-based; conditions: for zone of inhibition at 200 µg/disc: Cutibacterium acnes, NCTC737, read-out: DDA (zone of inhibition diameter); for DDA (zone of inhibition diameter): P. acnes NCTC 737
Description: (d) Disc Diffusion Assay (DDA)
This is an internationally recognised standard method for qualitatively assessing the antimicrobial activity of a compound.
A sterile paper disc was impregnated with a sample of the test compound in a suitable solvent and 30 minutes allowed for the solvents to evaporate (where possible). The disc was then placed on an agar plate onto which the test micro-organism had been inoculated. The plate was then incubated under the conditions described above, following which it was examined visually for signs of microbial growth. […] The diameter of this zone of “inhibition” was measured using a ProtoCOL™ automated zone sizer (Synbiosis, Cambridge, UK).
(§1) The TBHQ was dissolved in ethanol and the bismuth salts in DMSO.
(§2) All the (S)DDA experiments were conducted in triplicate.
(§3) DDA assays, as described above, were carried out using each of the test compounds individually. The quinone/bismuth salt combinations were then subjected to the SDDA assay described above.
(§4) The quinones and bismuth salts were all dissolved in DMSO.

[2] = test system: Propionibacterium acnes NCTC 737; test: Minimum bactericidal concentration (MBC) assay; type: cell-based; conditions: P. acnes NCTC 737
Description: (b) Minimum Bactericidal Concentration (MBC) Assay
(§5) MIC, MBC and DDA assays, as described above, were carried out using the test compound t-butyl-p-hydroquinone (TBHQ) and a range of bismuth salts (all ex-Sigma Aldrich, UK).

[3] = test system: Propionibacterium acnes NCTC 737; test: Synergy disc diffusion assay (SDDA); type: cell-based; conditions: P. acnes NCTC 737; for SDDA with TBHQ (zone diameter): bismuth salt together with TBHQ, 200 μg of each per disc; for SDDA increase: combination with TBHQ vs the single compound with the larger zone; for SDDA area increase: combination with TBHQ
Description: (e) Synergy Disc Diffusion Assay (SDDA)
Each bismuth salt was then subjected, together with the TBHQ, to the SDDA assay described above.
as §1, §2, §3, §4

[4] = test system: Propionibacterium acnes NCTC 737; test: Minimum inhibitory concentration (MIC) assay, liquid medium; type: cell-based; conditions: P. acnes NCTC 737
Description: (a) Minimum Inhibitory Concentration (MIC) Assay
This is a standard international method for quantitatively assessing the antimicrobial activity of a compound in a liquid medium. The method used a sterile 96-well microtitre plate, capable of holding about 200 μl of liquid per well. […] The culture medium was as described above.
After incubation, the microtitre plate was examined visually (with the aid of a light box) for cloudiness in each well, which would indicate microbial growth. The MIC value was recorded as the lowest concentration of test compound required to inhibit microbial growth, i.e., the lowest concentration for which the liquid in the well remained clear.
The assays were conducted in duplicate (minimum) and included both negative (culture medium with no micro-organisms) and positive (culture medium plus diluting solvent plus micro-organism) controls.
as §5

[5] = test system: P. acnes PRP panel strains; type: cell-based, Propionibacterium acnes
[6] = test system: P. granulosum panel strains; test: Agar dilution MIC assay, panel of propionibacteria; type: cell-based, Propionibacterium granulosum
[7] = 200 μg per disc (2-t-butyl-p-benzoquinone 100 μg per disc), in DMSO, Table 5
[8] = P. acnes PRP-002, resistance phenotype Tet/MLS
[9] = P. acnes PRP-003, resistance phenotype Tet
[10] = P. acnes PRP-004, resistance phenotype Tet
[11] = P. acnes PRP-007, resistance phenotype Clin
[12] = P. acnes PRP-008, resistance phenotype Clin
[13] = P. acnes PRP-010, resistance phenotype MLSK
[14] = P. acnes PRP-017, resistance phenotype MLS
[15] = P. acnes PRP-023, resistance phenotype MLSK
[16] = P. acnes PRP-026, resistance phenotype MLS
[17] = P. acnes PRP-039, resistance phenotype Tet/MLS
[18] = P. acnes PRP-046, resistance phenotype None
[19] = P. acnes PRP-053, resistance phenotype Tet/MLS
[20] = P. acnes PRP-059, resistance phenotype MLS
[21] = P. acnes PRP-068, resistance phenotype Ery
[22] = P. acnes PRP-101, resistance phenotype Tet/MLS
[23] = P. acnes PRP-102, resistance phenotype Tet/MLS
[24] = P. granulosum NCTC 11865, resistance phenotype None
[25] = P. granulosum PRP-005, resistance phenotype MLSK
[26] = P. granulosum PRP-006, resistance phenotype MLS
[27] = P. granulosum PRP-019, resistance phenotype MLSK
[28] = P. granulosum PRP-021, resistance phenotype MLS
[29] = P. granulosum PRP-043, resistance phenotype MLS
[30] = P. granulosum PRP-044, resistance phenotype MLS
[31] = P. granulosum PRP-055, resistance phenotype None

SMILES: O=C1C=CC(=O)C(Cl)=C1 [2-chloro-p-benzoquinone]
- zone of inhibition at 200 µg/disc [1]: 25.4 mm

SMILES: CC(C)(C)C1=CC(=O)C=CC1=O [2-t-butyl-p-benzoquinone]
- DDA (zone of inhibition diameter) [1, 7]: 52.61 mm

SMILES: CC(=O)[O-].CC(=O)[O-].CC(=O)[O-].[Bi+3] [Bismuth acetate]
- MBC ([2]; Table 1): 7.8 µg/mL
- MIC/MBC ratio ([2]; Table 1): 0.125
- DDA (zone of inhibition diameter) ([1]; 200 μg per disc, Table 2): 28.17 mm
- SDDA with TBHQ (zone diameter) ([3]; Table 2): 34.89 mm
- SDDA increase ([3]; Table 2): 6.72 mm
- SDDA area increase ([3]; Table 2): 53.4%
- MIC ([4]; Table 1): 0.98 µg/mL

SMILES: [Cl][Bi]([Cl])[Cl] [Bismuth chloride]
- MBC ([2]; Table 1): 3.9 µg/mL
- MIC/MBC ratio ([2]; Table 1): 0.125
- DDA (zone of inhibition diameter) ([1]; 200 μg per disc, Table 2): 26.07 mm
- SDDA with TBHQ (zone diameter) ([3]; Table 2): 31.64 mm
- SDDA increase ([3]; Table 2): 5.57 mm
- SDDA area increase ([3]; Table 2): 47.29%
- MIC ([4]; Table 1): 0.49 µg/mL

SMILES: O=C([O-])CC(O)(CC(=O)[O-])C(=O)[O-].[Bi+3] [Bismuth citrate]
- MBC ([2]; Table 1): 7.8 µg/mL
- MIC/MBC ratio ([2]; Table 1): 0.125
- DDA (zone of inhibition diameter) [1, 7]: 32.97 mm
- DDA (zone of inhibition diameter) ([1]; 200 μg per disc, Table 2): 34.47 mm
- SDDA with TBHQ (zone diameter) ([3]; Table 2): 43.41 mm
- SDDA increase ([3]; Table 2): 8.94 mm
- SDDA area increase ([3]; Table 2): 58.59%
- MIC (agar dilution) [5, 8]: 7.8 µg/mL
- MIC (agar dilution) [5, 9]: 3.9 µg/mL
- MIC (agar dilution) [5, 10]: 7.8 µg/mL
- MIC (agar dilution) [5, 11]: 3.9 µg/mL
- MIC (agar dilution) [5, 12]: 3.9 µg/mL
- MIC (agar dilution) [5, 13]: 7.8 µg/mL
- MIC (agar dilution) [5, 14]: 3.9 µg/mL
- MIC (agar dilution) [5, 15]: 3.9 µg/mL
- MIC (agar dilution) [5, 16]: 3.9 µg/mL
- MIC (agar dilution) [5, 17]: 0.98 µg/mL
- MIC (agar dilution) [5, 18]: 3.9 µg/mL
- MIC (agar dilution) [5, 19]: 3.9 µg/mL
- MIC (agar dilution) [5, 20]: 7.8 µg/mL
- MIC (agar dilution) [5, 21]: 7.8 µg/mL
- MIC (agar dilution) [5, 22]: 7.8 µg/mL
- MIC (agar dilution) [5, 23]: 7.8 µg/mL
- MIC (agar dilution) [6, 24]: 7.8 µg/mL
- MIC (agar dilution) [6, 25]: 7.8 µg/mL
- MIC (agar dilution) [6, 26]: 7.8 µg/mL
- MIC (agar dilution) [6, 27]: 7.8 µg/mL
- MIC (agar dilution) [6, 28]: 7.8 µg/mL
- MIC (agar dilution) [6, 29]: 3.9 µg/mL
- MIC (agar dilution) [6, 30]: 7.8 µg/mL
- MIC (agar dilution) [6, 31]: 7.8 µg/mL
- MIC ([4]; Table 1): 0.98 µg/mL

SMILES: O=[N+]([O-])[O-].O=[N+]([O-])[O-].O=[N+]([O-])[O-].O=[N+]([O-])[O-].[Bi+3].[Bi+3].[Bi+3].[Bi+3].[Bi+3].[O-2].[OH-].[OH-].[OH-].[OH-].[OH-].[OH-].[OH-].[OH-].[OH-] [Bismuth subnitrate]
- MBC ([2]; separate experiment, Table 3): 7.8 µg/mL
- MIC/MBC ratio ([2]; separate experiment, Table 3): 0.5
- DDA (zone of inhibition diameter) [1, 7]: 24.91 mm
- DDA (zone of inhibition diameter) ([1]; 200 μg per disc, separate experiment, Table 4): 24.91 mm
- SDDA with TBHQ (zone diameter) ([3]; Table 4): 30.39 mm
- SDDA increase ([3]; Table 4): 5.48 mm
- SDDA area increase ([3]; Table 4): 48.84%
- MIC (agar dilution) [5, 8]: 7.8 µg/mL
- MIC (agar dilution) [5, 9]: 7.8 µg/mL
- MIC (agar dilution) [5, 10]: 7.8 µg/mL
- MIC (agar dilution) [5, 11]: 7.8 µg/mL
- MIC (agar dilution) [5, 12]: 7.8 µg/mL
- MIC (agar dilution) [5, 13]: 7.8 µg/mL
- MIC (agar dilution) [5, 14]: 7.8 µg/mL
- MIC (agar dilution) [5, 15]: 7.8 µg/mL
- MIC (agar dilution) [5, 16]: 7.8 µg/mL
- MIC (agar dilution) [5, 17]: 7.8 µg/mL
- MIC (agar dilution) [5, 18]: 7.8 µg/mL
- MIC (agar dilution) [5, 19]: 7.8 µg/mL
- MIC (agar dilution) [5, 20]: 7.8 µg/mL
- MIC (agar dilution) [5, 21]: 7.8 µg/mL
- MIC (agar dilution) [5, 22]: 7.8 µg/mL
- MIC (agar dilution) [5, 23]: 7.8 µg/mL
- MIC (agar dilution) [6, 24]: 7.8 µg/mL
- MIC (agar dilution) [6, 25]: 7.8 µg/mL
- MIC (agar dilution) [6, 26]: 7.8 µg/mL
- MIC (agar dilution) [6, 27]: 7.8 µg/mL
- MIC (agar dilution) [6, 28]: 7.8 µg/mL
- MIC (agar dilution) [6, 29]: 7.8 µg/mL
- MIC (agar dilution) [6, 30]: 7.8 µg/mL
- MIC (agar dilution) [6, 31]: 7.8 µg/mL
- MIC ([4]; separate experiment, Table 3): 3.9 µg/mL

SMILES: CC1=CC(=O)C=CC1=O [Methyl-p-benzoquinone]
- zone of inhibition at 200 µg/disc [1]: 39.9 mm
